Key:
SMN-POLR2A interaction = target: T1, SMN-POLR2A interaction (Homo sapiens, UniProt Q16637); experiment: Coimmunoprecipitation of POLR2A with SMN in HEK293 cells; assay type: cell-based; settings: 72 h; for inhibition of the interaction between SMN and POLR2A: 20 µM; for coimmunoprecipitation of POLR2A with SMN: series of concentrations
T1 construct: endogenous in cells; host or cells: HEK293
Experimental: (§1) HEK293 cells (ATCC, CRL-1573) were grown in DMEM (SLRI media facility) plus 10% FBS (Sigma, F1051). For analysis of SMN chemical antagonists, HEK293 cells were treated with DMSO or a series of concentrations (0, 2, 6, 10, 20, 30, 40, and 80 μM) of compound 1, compound 2 or negative compound 15 for 72 h. CRISPR-mediated SMN1 gene knockout was performed according to our previous study. Briefly, 2 μg of CRISPR/Cas9 plasmid (pCMV-Cas9-GFP), which expresses scrambled guide RNA, or guide RNA that targets the SMN1 gene exon1 (gRNA target sequence: […]) or exon3 (gRNA target sequence: […]) was transfected into HEK293 cells. Cells were sorted by BD FACSAria flow cytometry at Donnelly Center, University of Toronto 24 h after transfection, and single GFP-positive cells were seeded into a 48-well plate. The expression levels of SMN in each clone were detected by immunofluorescence. The transfection of GFP-RNase H1 R-loop-binding domain (GFP-HB) for R-loop detection into HEK293 cells was performed with the FuGENE Transfection reagent (Roche, E269A).
The experiments were performed following procedure as previously described with minor modifications. […] The supernatant cell lysates were sonicated with five on and off cycles of 0.3 s/0.7 s per mL and incubated for 30 min at 4 °C with 12.5–25 units/mL benzonase nuclease (Sigma, E1014) to remove RNA and DNA, followed by centrifugation at 18,400 × g for 30 min at 4 °C. The supernatant cell lysates were incubated with 2 μg of antibody overnight at 4 °C, followed by the addition of 20 μL of Dynabeads Protein G beads (Invitrogen, 10004D) for an additional incubation for 4 h. After washing with low-salt buffer (10 mM Tris-HCl, pH 7.9, 100 mM NaCl, and 0.1% Nonidet P-40) 3 times, 10 min/time, associated proteins were eluted into protein-loading buffer and separated by Tris 4–20% SDS-polyacrylamide (Mini-PROTEAN TGX Precast Protein Gel, BioRad, 4561096), and transferred to nitrocellulose or PVDF membranes (Immu-Blot PVDF, BioRad, 1620112 or 1620177). Transferred samples were immunoblotted with primary antibodies (POLR2A, Abcam, ab5408, monoclonal antibody, clone No. 4H8; SMN, Santa Cruz Biotechnology, sc-15320, polyclonal antibody; ACTB, Sigma, A5441, monoclonal antibody, clone No. AC-15; GFP, Invitrogen, G10362, rabbit monoclonal antibody; TUBB, Santa Cruz Biotechnology, sc-9104, polyclonal antibody) at a dilution of 1:2000 to 1:5000, followed by horseradish peroxidase-conjugated goat anti-mouse or mouse anti-rabbit secondary antibody (Jackson Immuno Research, 115-035-174 or 211-032-171) at a dilution of 1:10,000. Western blot detection was performed with enhanced chemiluminescence (Pierce ECL Western Blotting Substrate, Thermo Fisher, 32209). […]

[1] = target: T2, SMN-RNAP II (GFP-POLR2D) interaction (Homo sapiens, UniProt Q16637); experiment: Coimmunoprecipitation of SMN with GFP-POLR2D in HEK293 cells; assay type: cell-based; settings: series of concentrations, 72 h
T2 construct: endogenous in cells; host or cells: HEK293
T2 sequence (Q16637 2-294 limits assumed): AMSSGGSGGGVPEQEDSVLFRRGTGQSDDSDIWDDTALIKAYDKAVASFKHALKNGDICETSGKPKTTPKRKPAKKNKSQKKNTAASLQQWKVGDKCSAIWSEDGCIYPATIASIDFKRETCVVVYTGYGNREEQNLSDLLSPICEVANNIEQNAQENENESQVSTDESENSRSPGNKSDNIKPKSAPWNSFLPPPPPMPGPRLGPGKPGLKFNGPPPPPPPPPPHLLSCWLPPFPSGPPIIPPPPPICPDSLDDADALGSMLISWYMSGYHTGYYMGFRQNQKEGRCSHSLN
Experimental: as §1
The experiments were performed following procedure as previously described with minor modifications. […]

R-loops in HEK293 cells = experiment: Global nuclear R-loop immunofluorescence (S9.6 antibody); assay type: cell-based, human; settings: 20 μM, 72 h, S9.6 immunofluorescence
Experimental: Global nuclear R-loop detection was ascertained via immunofluorescence using the S9.6 antibody (Kerafast, ENH001)[58]. At 24 h prior to immunofluorescence, 40,000 cells were seeded on to Poly-L-Lysine (PLL) coated coverslips. Cells were fixed using 1% formaldehyde for 15 min, washed three times with PBS, permeabilized with 0.3% Triton X-100 and washed again three times with PBS. Coverslips were blocked using 5% BSA for 1 h at room temperature and transferred to humidified chambers for antibody incubations. Coverslips were incubated with 60 μL of monoclonal S9.6 antibody (Kerafast, ENH001, 1:500) for 1 h at room temperature. After washing with PBS, cells were incubated with a secondary goat anti-mouse Alexa Fluor 488 antibody (Thermo Fisher, A11001, 1:1000) for 1 h in a dark chamber. Following further washing and DAPI staining, coverslips were mounted onto microscope slides using DAKO fluorescent mounting medium (Agilent, S302380-2) and then sealed with nail polish. […] The coverslips were processed for immunofluorescence 24 h later using the primary antibodies monoclonal S9.6 (Kerafast, ENH001, 1:500), or polyclonal anti-RNase H1 (Proteintech, 15606-1-AP, 1:500) and the secondary antibodies goat anti-mouse Alexa Fluor 488 (Thermo Fisher, A11001, 1:1000) or goat anti-rabbit Alexa Fluor 568 (Thermo Fisher, A11011, 1:1000) to quantify R-loop and confirm RNase H1 overexpression, respectively. […]

T1 sequence (Q16637 2-294 limits assumed): as above

| SMILES | inhibition of the interaction between SMN and POLR2A (SMN-POLR2A interaction) | coimmunoprecipitation of POLR2A with SMN (SMN-POLR2A interaction) | coimmunoprecipitation of SMN with GFP fusion protein of POLR2D [1] | global nuclear R-loop levels in comparison to the DMSO controls (R-loops in HEK293 cells) |
| --- | --- | --- | --- | --- |
| Cn1c2c(c(=N)c3c1CCC3)CCC2 [Compound 1, 4-methyl-2,3,4,5,6,7-hexahydrodicyclopenta[b,e]pyridin-8(1H)-imine] | significant inhibition | disrupted | inhibited | significantly increased |
| CCCn1c2c(c(=N)c3c1CCC3)CCC2 [Compound 2, 4-propyl-2,3,4,5,6,7-hexahydrodicyclopenta[b,e]pyridin-8(1H)-imine] | significant inhibition | disrupted | inhibited | significantly increased |

From paper PMC9481570, “A small molecule antagonist of SMN disrupts the interaction between SMN and RNAP II” (Nature Communications, 2022)
